Assay results from ChEMBL document CHEMBL5653610, “The novel phosphodiesterase 10A inhibitor THPP-1 has antipsychotic-like effects in rat and improves cognition in rat and rhesus monkey” (Neuropharmacology, 2013).
Activity calls are given as the source filed them. The rule behind the calls is not given here.

Tested on: Rattus norvegicus
Assay: Antipsychotic activity in Wistar Hannover rat assessed as increase in recognition at 0.56 mg/kg, ip dosed 30 mins before identical objects by novel object recognition test
Format: functional, organism-based

## COc1cc2c(cc1OC)C(=O)C(CC1CCN(Cc3ccccc3)CC1)C2 (stereo unspecified)
  Activity: Active
